According to patent US20250049926A1, “PHARMACEUTICAL COMPOSITIONS COMPRISING MODIFIED BETACYCLODEXTRINS” (priority 2021, published 2025):

Assay: Solubility measurement of saturated solutions by HPLC at room temperature (0 h and 24 h)
Format: physicochemical
Conditions: for solubility at 24 h / solubility at 0 h: thermodynamic from solid
Description: The vial contents are prepared starting with 2.5 mg of the compound of formula (I). The primary excipient is added followed by any further excipient and then the buffered water to a total volume of 500 μL. All components are mixed in a vortex mixer for ca. 5 minutes. If everything is dissolved an additional 2.5 mg of the compound of formula (I) is added and vortexed again for ca. 5 minutes. This is repeated until a saturated solution (suspension) is obtained.
The solubility in vial 1 is measured immediately as described below.
To measure solubility 400 μl of the suspension are taken and placed in a centrifugation device above a 0.2 μm filter. Centrifugation is performed at 14,000 rpm for 10 minutes and if necessary repeated for additional 10 minutes. The filter is removed from the vial and 100 μL is taken and diluted with 400 μL high-performance liquid chromatography (HPLC) diluent solution (see below) or diluted with 900 μL HPLC diluent solution in the event 5 mg or more of the compound of formula (I) was used. The pH of the solution is measured. A further 100 μL of the vial solution is taken and diluted with 400 μL of HPLC diluent solution or diluted with 900 μL HPLC diluent solution in the event 5 mg or more of the compound of formula (I) was used. The assay of the solution versus control stock solution is measured by HPLC and the solubility is calculated as described below. The HPLC diluent solution is 0.1% trifluoroacetic acid (TFA) in acetonitrile (ACN) and water (1:1 v/v).
All solubility tests are performed at room temperature.
The HPLC method for assessing solubility is performed as follows:
The solubility of the compound of formula (I) is calculated according to the following formula:
[formula] • Solubility=solubility of compound of formula (I) (mg/mL) • A=peak area of the compound of the sample tested • a=value of constant “a” in Linear regression equation y=ax+b • b=value of constant “b” in Linear regression equation y=ax+b • n=dilution time • Formulations for stability assessment are prepared as follows: […]

[1] = buffered water with excipients, pH 7, aqueous with cosolvent or surfactant or cyclodextrin, CBS 30 mM pH 7.0, NaCl 3 mg/mL, SBE-beta-CD 40 mg/mL, pH exp 7.0

- solubility at 24 h (buffered water with excipients, pH 4, aqueous with cosolvent or surfactant or cyclodextrin, CBS 30 mM pH 4.0, NaCl 6 mg/mL, SBE-beta-CD 40 mg/mL + Propylene glycol 5 mg/mL, pH exp 4.3): 3820 µg/mL
- solubility at 0 h (buffered water with excipients, pH 4, aqueous with cosolvent or surfactant or cyclodextrin, CBS 30 mM pH 4.0, NaCl 6 mg/mL, SBE-beta-CD 40 mg/mL + Propylene glycol 10 mg/mL, pH exp 4.1): 2420 µg/mL
- solubility at 24 h (buffered water with excipients, pH 4, aqueous with cosolvent or surfactant or cyclodextrin, CBS 30 mM pH 4.0, NaCl 6 mg/mL, SBE-beta-CD 40 mg/mL + Propylene glycol 10 mg/mL, pH exp 4.2): 3650 µg/mL
- solubility at 0 h (buffered water with excipients, pH 4, aqueous with cosolvent or surfactant or cyclodextrin, CBS 30 mM pH 4.0, NaCl 6 mg/mL, SBE-beta-CD 40 mg/mL + Propylene glycol 20 mg/mL, pH exp 4.1): 2310 µg/mL
- solubility at 24 h (buffered water with excipients, pH 4, aqueous with cosolvent or surfactant or cyclodextrin, CBS 30 mM pH 4.0, NaCl 6 mg/mL, SBE-beta-CD 40 mg/mL + Propylene glycol 20 mg/mL, pH exp 4.2): 3440 µg/mL
- solubility at 0 h (buffered water with excipients, pH 4, aqueous with cosolvent or surfactant or cyclodextrin, CBS 30 mM pH 4.0, NaCl 6 mg/mL, SBE-beta-CD 40 mg/mL + Propylene glycol 30 mg/mL, pH exp 4.1): 2150 µg/mL
- solubility at 24 h (buffered water with excipients, pH 4, aqueous with cosolvent or surfactant or cyclodextrin, CBS 30 mM pH 4.0, NaCl 6 mg/mL, SBE-beta-CD 40 mg/mL + Propylene glycol 30 mg/mL, pH exp 4.2): 3350 µg/mL
- solubility at 0 h (buffered water with excipients, pH 4, aqueous with cosolvent or surfactant or cyclodextrin, CBS 30 mM pH 4.0, SBE-beta-CD 54 mg/mL + Ethanol 16 mg/mL, pH exp 4.1): 2490 µg/mL
- solubility at 24 h (buffered water with excipients, pH 4, aqueous with cosolvent or surfactant or cyclodextrin, CBS 30 mM pH 4.0, SBE-beta-CD 54 mg/mL + Ethanol 16 mg/mL, pH exp 4.3): 3850 µg/mL
- solubility at 0 h (buffered water with excipients, pH 4, aqueous with cosolvent or surfactant or cyclodextrin, CBS 30 mM pH 4.0, SBE-beta-CD 54 mg/mL + PEG 300 56 mg/mL, pH exp 4.2): 2890 µg/mL
- solubility at 24 h (buffered water with excipients, pH 4, aqueous with cosolvent or surfactant or cyclodextrin, CBS 30 mM pH 4.0, SBE-beta-CD 54 mg/mL + PEG 300 56 mg/mL, pH exp 4.3): 4030 µg/mL
- solubility at 0 h (buffered water with excipients, pH 4, aqueous with cosolvent or surfactant or cyclodextrin, CBS 30 mM pH 4.0, SBE-beta-CD 56 mg/mL + PEG 400 22 mg/mL, pH exp 4.2): 2810 µg/mL
- solubility at 24 h (buffered water with excipients, pH 4, aqueous with cosolvent or surfactant or cyclodextrin, CBS 30 mM pH 4.0, SBE-beta-CD 56 mg/mL + PEG 400 22 mg/mL, pH exp 4.3): 4060 µg/mL
- solubility at 0 h (buffered water with excipients, pH 4, aqueous with cosolvent or surfactant or cyclodextrin, GBS (gluconate) 30 mM pH 4.0, NaCl 3 mg/mL, SBE-beta-CD 40 mg/mL, pH exp 4.1): 2590 µg/mL
- solubility at 24 h (buffered water with excipients, pH 4, aqueous with cosolvent or surfactant or cyclodextrin, GBS (gluconate) 30 mM pH 4.0, NaCl 3 mg/mL, SBE-beta-CD 40 mg/mL, pH exp 4.5): 3940 µg/mL
- solubility at 0 h (buffered water with excipients, pH 4, aqueous with cosolvent or surfactant or cyclodextrin, LBS (lactate) 30 mM pH 4.0, NaCl 3 mg/mL, SBE-beta-CD 40 mg/mL, pH exp 4.1): 2690 µg/mL
- solubility at 24 h (buffered water with excipients, pH 4, aqueous with cosolvent or surfactant or cyclodextrin, LBS (lactate) 30 mM pH 4.0, NaCl 3 mg/mL, SBE-beta-CD 40 mg/mL, pH exp 4.3): 3980 µg/mL
- solubility at 24 h (buffered water with excipients, pH 5.5, aqueous with cosolvent or surfactant or cyclodextrin, CBS 30 mM pH 5.5, NaCl 3 mg/mL, SBE-beta-CD 40 mg/mL, pH exp 5.7): 3100 µg/mL
- solubility at 0 h [1]: 2230 µg/mL
- solubility at 24 h [1]: 2230 µg/mL
- solubility at 0 h (buffered water without excipient (saturated solution), pH 4, aqueous buffer, CBS 30 mM pH 4.0, no excipient, pH exp 4.0): 160 µg/mL
- solubility at 24 h (buffered water without excipient (saturated solution), pH 4, aqueous buffer, CBS 30 mM pH 4.0, no excipient, pH exp 4.2): 120 µg/mL
- effect of buffer on solubility with SBE-beta-CD (citrate acid, acetic acid, gluconic acid, lactic acid and aspartic acid buffer): approximately the same
- solubility (in words) (other solubilizers at concentrations suitable for intravenous use, including hydroxypropyl beta-cyclodextrin): Low solubility
- effect of additional excipient on solubility with SBE-beta-CD (saline): very small impact on solubility
- solubility (in words) (with SBE-beta-CD at concentrations of solubilizer suitable for intravenous use): High solubility
- solubility (in words) (with SBE-beta-CD, at higher pH): lower solubility
- solubility (in words) (with SBE-beta-CD, between pH 4 to pH 5.5): High solubility
SMILES: COc1cc(N2CCNCC2)ccc1Nc1ncc2c(n1)-n1ccc(C(=O)Nc3c(C)cccc3C)c1CC2 [compound of formula (I)]
